Here are results for nine molecules from patent US9845285B2, “Crystalline solid and amorphous forms of (−)-halofenate and methods related thereto” (CymaBay Therapeutics, Inc., priority 2005, dated 2017).

Where two headings read alike, the source gives them in different places.

The target of data set [1] is cytochrome P450 2C9 (Homo sapiens, UniProt P11712). The following applies: cited from earlier work.
A short description of data set [2]: physchem. The following applies: for solubility: thermodynamic from solid. Here is the method:
Solubility studies were done on Form A in water and a variety of organic solvents. […] Solubility was also determined in these solvents at approximately 50° C.

The nature of data set [3]: Automated moisture sorption/desorption. As to conditions: for solid form after moisture sorption/desorption: XRPD after desorption. It counts as physicochemical. The method, then: Moisture sorption/desorption data were collected on a VTI-SGA-100 Vapor Sorption Analyzer. Sorption and desorption data were collected over a range of 5% to 95% relative humidity (RH) at 10% RH intervals under a nitrogen purge. Samples were not dried prior to analysis. Equilibrium criteria used for analysis were less than 0.0100% weight change in 5 minutes with a maximum equilibration time of 3 hours if the weight criterion was not met. Data were not corrected for the initial moisture content of the samples. Sodium chloride and polyvinylpyrolidone were used as calibration standards. A sample was taken after desorption was complete and analyzed by powder X-ray diffraction for potential form change.

Data set [4] is described as follows: Slurry interconversion studies in cyclohexane. It counts as physicochemical. The following applies: for form resulting from slurry: cyclohexane, ambient temperature, 50° C. and 5° C. The method, then:
Samples of mixed forms by XRPD and pure forms were used for interconversion studies (see FIG. 37).
A saturated solution was prepared by vortexing and sonicating ca. 4 mg (−)-halofenate Form A in approximately 5-6 mL cyclohexane. This solution was filtered into a sample containing a mixture of ca. 40 mg Form A/Form D. The mixture was slurred on a rotating wheel at ambient temperature for approximately 6 days. The solids were recovered by vacuum filtration and vacuum dried at ambient temperature. The dry solids were analyzed by polarized light microscopy and XRPD.
The experiment was repeated using a shaker block at ca 50° C. using 2 mL of cyclohexane and slurried for ca. 3 days. and the supernatant was removed through decantation. Both the ambient and 50° C. experiments were repeated using pure forms A and E (ca. 20 mg of each form). The ambient experiment was also repeated with A, B, D, and E (ca. 10 mg of each form, slurred approximately 7 days) on a rotating wheel and on a magnetic stir plate in the refrigerator (ca 5° C.). When conversion was not deemed complete by XRPD solids were re-slurried in cyclohexane.
Interconversion studies were carried out in cyclohexane at ambient temperature 50° C. and 5° C. (see FIG. 37). The solvent was chosen because of the high solubility of the various forms in common organic solvents. Forms A, B, D and E were used as starting materials.

A short description of data set [5]: Thermal analysis (DSC/TGA), decomposition. It counts as physicochemical. Here is the method:
Differential scanning calorimetry (DSC) was performed using a TA Instruments 2920 differential scanning calorimeter. The sample was placed into an aluminum DSC pan and the weight accurately recorded. The pan was covered with a lid and then crimped. The sample cell was equilibrated at 25° C. and heated under a nitrogen purge at a rate of 10° C./min, up to a final temperature of 350° C. Indium metal was used as the calibration standard. Reported temperatures are at the transition maxima.
Thermographic analyses (TGA) was performed using a TA Instruments 2920 thermographic analyzer. The sample was placed into an aluminum sample pan and inserted into a TGA furnace. The sample was first equilibrated at 25° C., then heated under a nitrogen at a rate of 10° C./min, up to a final temperature of 350° C. Nickel and ALUMEL™ were used as calibration standards.

Data set [6] can be described thus: Solid form stability on drying, slurrying and storage. It counts as physicochemical. The following applies: for conversion to other solid forms: upon drying, slurrying or over time.
For data set [7] the following is noted: cited from earlier work.

Sequence of cytochrome P450 2C9 (P11712 whole entry): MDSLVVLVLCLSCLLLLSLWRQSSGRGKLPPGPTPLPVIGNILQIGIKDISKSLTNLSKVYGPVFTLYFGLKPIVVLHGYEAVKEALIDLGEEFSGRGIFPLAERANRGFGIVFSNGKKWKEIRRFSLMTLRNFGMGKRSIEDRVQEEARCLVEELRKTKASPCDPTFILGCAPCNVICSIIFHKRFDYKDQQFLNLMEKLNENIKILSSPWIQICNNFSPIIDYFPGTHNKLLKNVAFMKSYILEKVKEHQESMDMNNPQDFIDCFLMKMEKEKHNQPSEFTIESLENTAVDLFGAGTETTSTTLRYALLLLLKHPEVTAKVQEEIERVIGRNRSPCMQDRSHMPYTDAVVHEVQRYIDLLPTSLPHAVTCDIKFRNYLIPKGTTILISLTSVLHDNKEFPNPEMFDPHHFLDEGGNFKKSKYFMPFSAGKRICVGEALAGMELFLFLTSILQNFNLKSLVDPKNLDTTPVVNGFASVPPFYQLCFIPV

On to `O=C(O)C(Oc1cccc(C(F)(F)F)c1)c1ccc(Cl)cc1` (single isomer, unassigned; (-)) [(−)-enantiomer of halofenic acid], for which the “ability to inhibit cytochrome P450 2C9 compared to the (+)-enantiomer (less active)” value in data set [1] (versus (+)-enantiomer of halofenic acid, U.S. Pat. No. 6,262,118) is on record as “about twenty-fold”.
Usually solubility stands for the concentration that dissolves in the medium under given conditions. With `CC(=O)NCCOC(=O)C(Oc1cccc(C(F)(F)F)c1)c1ccc(Cl)cc1` (single isomer, unassigned; (-)) [(−)-halofenate, (−)-2-acetamidoethyl 4-chlorophenyl-(3-trifluoromethylphenoxy)-acetate], the solubility in data set [2] (organic solvent or mixture) is over 300 mg/mL; in data set [2] (water) it was under 1 mg/mL.
As for `CC(=O)NCCOC(=O)C(Oc1cccc(C(F)(F)F)c1)c1ccc(Cl)cc1` (stereo not shown) [Form A], the “relative solubility in crystallization solvents” value in data set [2] (some crystallization solvents) is “lower solubility”. For the same molecule, the hygroscopicity result in data set [3] is recorded as “non-hygroscopic”. Also, the “solid form after moisture sorption/desorption” value in data set [3] is on record as “essentially unchanged”. Moreover, the figures for the weight gain entry in data set [3] (at 65% relative humidity (RH)) and in data set [3] (at 65-95% RH) were “no weight gain” and 1.6%, respectively. Also, the “loss of weight gain in desorption study” value in data set [3] (desorption at 5% RH) is “All of the weight gain was lost”. Also, the “form resulting from slurry” value in data set [4] is on record as “resulted in Form A”. In addition, in data set [4] (from slurry interconversion in cyclohexane), the “relative stability of crystal form” value is “most stable crystal form”. Moreover, in data set [5], the decomposition onset result is “approximately 200 °C”. The “relative thermodynamic stability of crystalline solid form” value is listed as “most thermodynamically stable” in data set [6] and “most stable crystalline solid form” in data set [6] (listed as form A). The storage stability result in data set [6] (long periods (months)) is on record as “could be stored for long periods (months) without decomposition”.
In the case of `CC(=O)NCCOC(=O)C(Oc1cccc(C(F)(F)F)c1)c1ccc(Cl)cc1` (racemic) [racemic halofenate, 2-acetamidoethyl 4-chlorophenyl-(3-trifluoromethylphenoxy)-acetate], the side effects entry in data set [7] (Friedberg et al., Clin. Res. 1986) is “gastrointestinal bleeding from stomach and peptic ulcers”. Further, the drug-drug interactions result in data set [7] (with agents such as warfarin sulfate (COUMADIN), Vesell and Passantanti 1972) was “some indications of drug-drug interactions”.
`CC(=O)NCCOC(=O)C(Oc1cccc(C(F)(F)F)c1)c1ccc(Cl)cc1` (stereo not shown) [Form C]: the “conversion to other solid forms” value is “could be converted to other forms upon drying or slurrying” in data set [6] and “over time conversion to crystal form E (below) occurred” in data set [6] (listed as form C).
For `CC(=O)NCCOC(=O)C(Oc1cccc(C(F)(F)F)c1)c1ccc(Cl)cc1` (stereo not shown) [Form E], in data set [3], the hygroscopicity result is “non-hygroscopicity” and the “solid form after moisture sorption/desorption” value is “remained Form E”. In data set [3] (at 95% RH), the weight gain result is “less than 0.2%”. For the same molecule, the “form resulting from slurry” value in data set [4] was “resulted in Form A”. Further, in data set [5], the decomposition onset result is “approximately 225 °C”. The “conversion to other solid forms” value in data set [6] is reported as “could be converted to Form A upon slurring”.
Consider `O=C(O)C(Oc1cccc(C(F)(F)F)c1)c1ccc(Cl)cc1` (racemic) [halofenic acid, 4-Chlorophenyl-(3-trifluoromethylphenoxy)-acetic acid], for which the “inhibition of cytochrome P450 2C9” value in data set [1] is given as “inhibited”.
With `CC(=O)NCCOC(=O)C(Oc1cccc(C(F)(F)F)c1)c1ccc(Cl)cc1` (stereo not shown) [Form D], in data set [3], the hygroscopicity result was “non-hygroscopicity” and the “solid form after moisture sorption/desorption” value was “remained Form D”. Besides, the weight gain result in data set [3] (at 95% RH) is given as “less than 0.1%”. The “form resulting from slurry” value in data set [4] is “resulted in Form A”. Further, the decomposition onset entry in data set [5] is “approximately 225 °C”. In addition, the “conversion to other solid forms” value in data set [6] is on record as “could be converted to Form A upon slurring”.
For `CC(=O)NCCOC(=O)C(Oc1cccc(C(F)(F)F)c1)c1ccc(Cl)cc1` (stereo not shown) [Form B], in data set [4], the “form resulting from slurry” value was “resulted in Form A”. Also, in data set [6], the “conversion to other solid forms” value is on record as “could be converted to other solid forms upon drying or slurrying”.
